Data: article PMC8625207, “Antikinetoplastid Activity of Sesquiterpenes Isolated from the Zoanthid Palythoa aff. clavata” (Pharmaceuticals, 2021)

Experiments:
[1] = alamarBlue cytotoxicity on murine macrophages; type: cell-based; conditions: mouse, J774A.1 macrophages; 24 h of incubation; read-out: Macrophages J744A.1 CC50
[2] = tested on: promastigotes of Leishmania amazonensis strain (MHOM/BR/77/LTB0016); test: alamarBlue activity against promastigotes of L. amazonensis; type: cell-based; conditions: for IC50: Leishmania amazonensis, 72 h of incubation, mean with standard deviation; for Promastigotes L. amazonensis SI: selectivity index CC50/IC50
Procedure: (§1) For the anti-leishmanicidal experiments, promastigotes and amastigotes of Leishmania amazonensis strain (MHOM/BR/77/LTB0016) and promastigotes of Leishmania donovani strain (MHOM/IN/90/GE1F8R) were used, and they were maintained in RPMI 1640 medium (Gibco, Waltham, MA, USA) at 26 °C. For the trypanocidal experiments, epimastigotes of Trypanosoma cruzi (Y strain) were used, and they were maintained in liver infusion tryptose (LIT) medium supplemented with 10% of fetal bovine serum (FBS) at 26 °C. Murine macrophages J774A.1 (ATCC #TIB-67), maintained in DMEM medium at 37 °C with 5% CO2, were used for the cytotoxic activity assays.
(§2) For the activity against extracellular parasites of kinetoplastid, Leishmania and Trypanosoma parasites, in a 96-well plate, serial dilutions of the compounds were added with dilutions of 10^5 parasites per well and a 10% of alamarBlue Cell Viability Reagent® (Thermo Fisher Scientific, Waltham, MA, USA). After 72 h of incubation at 26 °C, the fluorescence of each well was measured in the EnSpire Multimode Plate Reader® (PerkinElmer, Thermo Fisher Scientific, Madrid, Spain). The inhibitory concentration 50 (IC50) was calculated by nonlinear regression analysis.

[3] = tested on: promastigotes of L. donovani
[4] = tested on: promastigotes of Leishmania donovani strain (MHOM/IN/90/GE1F8R); test: alamarBlue activity against promastigotes of L. donovani; type: cell-based; conditions: for IC50: Leishmania donovani, 72 h of incubation, mean with standard deviation; for Promastigotes L. donovani SI: selectivity index CC50/IC50 (macrophages J744A.1 vs parasite)
Procedure: as §1, §2

[5] = tested on: epimastigotes of Trypanosoma cruzi (Y strain); test: alamarBlue activity against epimastigotes of T. cruzi; type: cell-based; conditions: for IC50: Trypanosoma cruzi, 72 h of incubation, mean with standard deviation; for Epimastigotes T. cruzi SI: selectivity index CC50/IC50
Procedure: as §1, §2

[6] = tested on: promastigotes of L. donovani; test: Chromatin condensation, Hoechst 33342/propidium iodide; type: cell-based, Leishmania donovani; conditions: IC90, 24 h
[7] = tested on: amastigotes of L. amazonensis; test: alamarBlue activity against intracellular amastigotes of L. amazonensis in murine macrophages; type: cell-based, Leishmania amazonensis; conditions: for IC50: Leishmania amazonensis, Macrophage, 24 h of incubation, intracellular form in murine macrophages; for Amastigotes L. amazonensis SI: selectivity index CC50/IC50
Procedure: as §1
To determinate the IC50 against the intracellular form of the parasite amastigotes of L. amazonensis, the alamarBlue colorimetric method was also used. In a 96-well plate, murine macrophages were added in a concentration of 10^4 cells per well. After adherence of the cells, 10^5 promastigotes of the parasite were added to reach 1:10 cell:parasites per well. After 24 h of incubation at 37 °C with 5% of CO2 for the internalization of the parasite, the wells were washed, and serial dilutions of the compounds were added. After an incubation of 24 h with the compounds, the wells were washed, and the macrophages were broken with a solution of SDS (Sodium dodecyl sulfate) at 0.05% for 30 s. After adding fresh RPMI medium, we added 10% of alamarBlue, and the plates were incubated at 26 °C for 96 h. Finally, the fluorescence was measured by using the EnSpire Multimode Plate Reader® (PerkinElmer, Thermo Fisher Scientific, Madrid, Spain), and the IC50 of each compound was calculated.

[8] = tested on: promastigotes of L. amazonensis; test: Reactive oxygen species detection, CellROX Deep Red; type: cell-based, Leishmania amazonensis; conditions: IC90, 24 h
[9] = tested on: promastigotes of L. amazonensis; test: Plasmatic membrane permeability, SYTOX Green; type: cell-based, Leishmania amazonensis; conditions: IC90, 24 h
[10] = tested on: promastigotes of L. amazonensis; test: Chromatin condensation, Hoechst 33342/propidium iodide; type: cell-based, Leishmania amazonensis; conditions: IC90, 24 h
[11] = tested on: L. amazonensis; test: Mitochondrial membrane potential, JC-1; type: cell-based, Leishmania amazonensis; conditions: IC90, 24 h
Procedure: The alterations on the mitochondrial membrane potential were measured by using JC-1® reagent. The results were expressed in percentage of variations in the mitochondrial membrane potential relative to the untreated control.
The alterations in the mitochondrial membrane potential were determined by using the JC-1 Mitochondrial Membrane Potential Assay Kit® (Cayman Chemical, Ann Arbor, MI, USA). […] Finally, using the EnSpire Multimode Plate Reader® (PerkinElmer, Thermo Fisher Scientific, Madrid, Spain), we measured the fluorescence, and the results were expressed in the percentage relative to the negative control (without any treatment), using the ratio 595 nm/535 nm (aggregates/monomers). All of the experiments were performed in triplicate in three different days (n = 3).

[12] = tested on: epimastigotes of T. cruzi; test: Reactive oxygen species detection, CellROX Deep Red; type: cell-based, Trypanosoma cruzi; conditions: IC90, 24 h
[13] = tested on: T. cruzi; test: ATP levels, CellTiter-Glo; type: cell-based, Trypanosoma cruzi; conditions: IC90, 24 h, negative control = 100%
Procedure: (§3) The levels of ATP were measured by using CellTiter-Glo® reagent, and values of luminescence were obtained by the EnSpire Multimode Plate Reader®. Results were processed and represented in Figure 4 as the percentage of ATP relative to the negative control (without treatment) that corresponds with 100% of ATP level.
(§4) The levels of ATP in the wells were measured by using the CellTiter-Glo® Luminescent Cell Viability Assay (Promega, WI, USA). […] These volumes were transferred to a white plate, and 25 μL of kit was added to each well. After 10 min of incubation at room temperature, the luminescence was determined by using the EnSpire Multimode Plate Reader® (PerkinElmer), and the results were expressed as the percentage of production of ATP relative to the negative control (without any treatment). All of the experiments were performed in triplicate in three different days (n = 3).

[14] = tested on: epimastigotes of T. cruzi; test: Chromatin condensation, Hoechst 33342/propidium iodide; type: cell-based, Trypanosoma cruzi; conditions: IC90, 24 h
[15] = tested on: L. amazonensis; test: ATP levels, CellTiter-Glo; type: cell-based, Leishmania amazonensis; conditions: IC90, 24 h, negative control = 100%
Procedure: as §3, §4

[16] = tested on: epimastigotes of T. cruzi

C=C1C(=O)OC2C=C(C)CCC=C(COC(C)=O)CCC12 (mixture of isomers) [cis,trans-costunolide-14-acetate (3), cis,trans-costunolide-14-acetate]
CC50 at 24 h [1]: 51 ± 7.54 µM
IC50 [2]: 8.62 ± 1 µM
Promastigotes L. amazonensis SI [2]: 5.92
Plasmatic membrane permeability [3]: increase on the plasmatic membrane permeability
IC50 [4]: 5.41 ± 1.28 µM
Promastigotes L. donovani SI [4]: 9.43
IC50 [5]: 8.88 ± 0.91 µM
Epimastigotes T. cruzi SI [5]: 5.75
Chromatin condensation [6]: blue and red fluorescence was produced
IC50 [7]: 24.6 ± 3.64 µM
Amastigotes L. amazonensis SI [7]: 2.08

C=C1C(=O)O[C@@H]2[C@@H]3[C@@](C)(CC[C@@H]12)[C@H](O)CC[C@]3(C)O [4b-Hydroxyarbusculin A (11), 4β-hydroxyarbusculin A]
Reactive oxygen species detection [8]: presence of red fluorescence
CC50 at 24 h [1]: > 403 µM
Plasmatic membrane permeability [9]: increase on the plasmatic membrane permeability
Chromatin condensation [10]: induced chromatin condensation
IC50 [2]: 76.4 ± 5.72 µM
Promastigotes L. amazonensis SI [2]: >5.27
IC50 [4]: > 201 µM
IC50 [5]: > 201 µM
IC50 [7]: 15.8 ± 1.01 µM
Amastigotes L. amazonensis SI [7]: >25.47
Amastigotes L. amazonensis SI ([7]; listed as 4β-hydroxyarbusculin A (11)): > 25.47
Mitochondrial membrane potential relative to the negative control [11]: 40.99%

C=C1CCC2C(=C)C(=O)OC2C=C(C)CCC1=O (stereo not drawn) [Anhydroartemorin (2), anhydroartemorin]
CC50 at 24 h [1]: 179 ± 2.27 µM
Reactive oxygen species detection [12]: intense fluorescence due to ROS detection
Plasmatic membrane permeability [9]: increase on the plasmatic membrane permeability
Percentage of ATP relative to the negative control [13]: 27.17%
Chromatin condensation [10]: induced chromatin condensation
Chromatin condensation [14]: caused chromatin condensation
Percentage of ATP relative to the negative control [15]: 28.76%
IC50 [2]: 25.6 ± 5.88 µM
Promastigotes L. amazonensis SI [2]: 7.00
Plasmatic membrane permeability [16]: increase on the plasmatic membrane permeability
IC50 [4]: > 102 µM
Promastigotes L. donovani SI [4]: <1.76
IC50 [5]: 13 ± 4.95 µM
Epimastigotes T. cruzi SI [5]: 13.76
IC50 [7]: 7.44 ± 0.45 µM
Amastigotes L. amazonensis SI [7]: 24.06

C=C1CCC2C(=C)C(=O)OC2C=C(C)CCC1O (stereo not drawn) [Artemorin (1), artemorin]
CC50 at 24 h [1]: > 403 µM
IC50 [2]: 40.9 ± 2.82 µM
Promastigotes L. amazonensis SI [2]: >9.85
IC50 [4]: > 201 µM
IC50 [5]: 81 ± 12 µM
Epimastigotes T. cruzi SI [5]: >4.97
IC50 [7]: 40.1 ± 3.44 µM
Amastigotes L. amazonensis SI [7]: >10.04

O=C(Cn1ccnc1[N+](=O)[O-])NCc1ccccc1 [Benznidazole, reference compound]
CC50 at 24 h [1]: > 1540 µM

C=C1C(=O)O[C@H]2CC(=C)[C@H]3CCC(=C)[C@@H](O3)[C@@H](O)[C@H]12 [Dehydroxyisobadgerin (9), dehydroxyisobadgerin]
CC50 at 24 h [1]: 50 ± 13.1 µM
IC50 [2]: 25.5 ± 3.2 µM
Promastigotes L. amazonensis SI [2]: 1.96
IC50 [4]: 34 ± 3.32 µM
Promastigotes L. donovani SI [4]: 1.47
IC50 [5]: 59.8 ± 9.76 µM
Epimastigotes T. cruzi SI [5]: 0.84

C=C1C(=O)O[C@H]2CC(=C)[C@H]3CC[C@@](C)(O)[C@@H](O3)[C@@H](O)[C@H]12 [Isobadgerin (8), isobadgerin]
CC50 at 24 h [1]: 89.7 ± 3.92 µM
IC50 [2]: > 89.2 µM
Promastigotes L. amazonensis SI [2]: <1.01
IC50 [4]: > 89.2 µM
Promastigotes L. donovani SI [4]: <1.01
IC50 [5]: > 89.2 µM
Epimastigotes T. cruzi SI [5]: <1.01

CCCCCCCCCCCCCCCCOP(=O)([O-])OCC[N+](C)(C)C [Miltefosine, reference compound]
CC50 at 24 h [1]: 72.2 ± 3.06 µM
Promastigotes L. amazonensis SI [2]: 11.14
Promastigotes L. donovani SI [4]: 21.74
Amastigotes L. amazonensis SI [7]: 23.17
